Assay results taken from publication PMC3961306, “Comparison of the Cancer Gene Targeting and Biochemical Selectivities of All Targeted Kinase Inhibitors Approved for Clinical Use” (PLoS ONE, 2014).

Tests used:
Experiment in all cases: Kinase profiling in a biochemical assay panel (mobility shift assays and ELISA), %-inhibition at 1 μM; selectivity entropy
[1] = target: panel of more than 300 wild-type and mutant kinases (313 kinase panel) (Homo sapiens, UniProt P07948); details: kinase LYNa; compound at 1 μM
[2] = target: panel of more than 300 wild-type and mutant kinases (313 kinase panel) (Homo sapiens, UniProt P10721, T670I)
panel of more than 300 wild-type and mutant kinases (313 kinase panel) (Homo sapiens, UniProt P10721, T670I), sequence (P10721 26-976 T670I): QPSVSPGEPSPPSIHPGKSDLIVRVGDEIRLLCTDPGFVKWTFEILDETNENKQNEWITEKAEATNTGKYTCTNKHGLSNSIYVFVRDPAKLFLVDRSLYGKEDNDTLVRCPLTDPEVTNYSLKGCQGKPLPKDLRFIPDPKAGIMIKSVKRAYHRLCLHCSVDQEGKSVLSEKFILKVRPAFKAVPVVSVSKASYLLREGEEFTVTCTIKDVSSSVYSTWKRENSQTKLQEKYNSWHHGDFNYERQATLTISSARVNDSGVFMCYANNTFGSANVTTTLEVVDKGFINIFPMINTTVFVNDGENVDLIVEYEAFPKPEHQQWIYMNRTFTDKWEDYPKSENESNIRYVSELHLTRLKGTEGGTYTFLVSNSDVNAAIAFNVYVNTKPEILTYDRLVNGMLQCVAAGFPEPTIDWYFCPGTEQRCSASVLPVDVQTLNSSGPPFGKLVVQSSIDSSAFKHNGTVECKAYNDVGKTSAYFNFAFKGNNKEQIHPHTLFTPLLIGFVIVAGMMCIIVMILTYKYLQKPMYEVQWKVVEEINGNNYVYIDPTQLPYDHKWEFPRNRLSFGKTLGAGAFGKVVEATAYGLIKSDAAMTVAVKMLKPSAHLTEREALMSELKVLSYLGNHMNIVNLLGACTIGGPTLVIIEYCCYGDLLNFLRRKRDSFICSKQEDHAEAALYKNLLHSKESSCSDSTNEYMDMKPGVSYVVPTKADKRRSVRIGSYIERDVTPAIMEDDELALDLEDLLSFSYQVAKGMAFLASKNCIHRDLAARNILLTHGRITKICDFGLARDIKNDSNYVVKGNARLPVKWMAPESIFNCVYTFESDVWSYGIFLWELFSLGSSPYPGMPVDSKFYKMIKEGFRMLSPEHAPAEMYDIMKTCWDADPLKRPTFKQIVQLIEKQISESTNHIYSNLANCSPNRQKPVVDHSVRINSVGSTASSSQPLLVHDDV

[3] = target: panel of more than 300 wild-type and mutant kinases (313 kinase panel) (Homo sapiens, UniProt P17252); details: kinase PKCα; 1 μM
[4] = target: panel of more than 300 wild-type and mutant kinases (313 kinase panel) (Homo sapiens, UniProt P22455); details: kinase FGFR4; compound at 1 μM
[5] = target: panel of more than 300 wild-type and mutant kinases (313 kinase panel) (Homo sapiens, UniProt P36894); details: kinase BMPR1A; 1 μM compound
[6] = target: panel of more than 300 wild-type and mutant kinases (313 kinase panel) (Homo sapiens, UniProt P49841); details: kinase GSK3β; compound at 1 μM
[7] = target: panel of more than 300 wild-type and mutant kinases (313 kinase panel) (Homo sapiens, UniProt Q15375); details: kinase EPHA7; compound at 1 μM
panel of more than 300 wild-type and mutant kinases (313 kinase panel) (Homo sapiens, UniProt Q15375), sequence (Q15375 28-998, change not shown): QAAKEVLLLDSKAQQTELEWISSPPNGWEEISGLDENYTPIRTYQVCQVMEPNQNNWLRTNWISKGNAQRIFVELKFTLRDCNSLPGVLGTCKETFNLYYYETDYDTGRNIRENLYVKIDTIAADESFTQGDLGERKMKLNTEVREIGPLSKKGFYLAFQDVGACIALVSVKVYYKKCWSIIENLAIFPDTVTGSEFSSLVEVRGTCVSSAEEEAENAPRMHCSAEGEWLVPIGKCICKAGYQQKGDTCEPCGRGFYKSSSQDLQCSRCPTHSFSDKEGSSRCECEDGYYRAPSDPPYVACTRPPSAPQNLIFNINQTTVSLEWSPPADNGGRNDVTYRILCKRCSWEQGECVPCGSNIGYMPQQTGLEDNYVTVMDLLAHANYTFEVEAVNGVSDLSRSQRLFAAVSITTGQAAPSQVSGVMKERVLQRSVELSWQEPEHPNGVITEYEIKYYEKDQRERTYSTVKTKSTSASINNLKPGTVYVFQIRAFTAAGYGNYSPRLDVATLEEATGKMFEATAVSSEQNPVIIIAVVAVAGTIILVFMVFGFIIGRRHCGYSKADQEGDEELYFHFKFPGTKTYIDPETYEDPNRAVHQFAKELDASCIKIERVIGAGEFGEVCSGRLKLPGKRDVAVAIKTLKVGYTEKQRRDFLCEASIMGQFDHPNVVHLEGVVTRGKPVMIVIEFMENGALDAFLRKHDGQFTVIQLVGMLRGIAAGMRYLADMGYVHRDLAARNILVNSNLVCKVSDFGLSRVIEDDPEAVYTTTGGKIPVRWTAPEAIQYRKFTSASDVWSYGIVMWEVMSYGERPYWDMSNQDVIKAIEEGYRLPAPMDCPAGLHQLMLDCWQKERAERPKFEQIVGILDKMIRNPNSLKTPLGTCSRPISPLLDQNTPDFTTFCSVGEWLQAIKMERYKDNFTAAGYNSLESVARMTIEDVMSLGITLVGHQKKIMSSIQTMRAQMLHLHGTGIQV

[8] = target: panel of more than 300 wild-type and mutant kinases (313 kinase panel) (Homo sapiens, UniProt Q16620)
[9] = target: T1, panel of more than 300 wild-type and mutant kinases (313 kinase panel) (Homo sapiens, UniProt Q8TD19); details: kinase NEK9; 1 μM
T1 sequence (Q8TD19 1-979): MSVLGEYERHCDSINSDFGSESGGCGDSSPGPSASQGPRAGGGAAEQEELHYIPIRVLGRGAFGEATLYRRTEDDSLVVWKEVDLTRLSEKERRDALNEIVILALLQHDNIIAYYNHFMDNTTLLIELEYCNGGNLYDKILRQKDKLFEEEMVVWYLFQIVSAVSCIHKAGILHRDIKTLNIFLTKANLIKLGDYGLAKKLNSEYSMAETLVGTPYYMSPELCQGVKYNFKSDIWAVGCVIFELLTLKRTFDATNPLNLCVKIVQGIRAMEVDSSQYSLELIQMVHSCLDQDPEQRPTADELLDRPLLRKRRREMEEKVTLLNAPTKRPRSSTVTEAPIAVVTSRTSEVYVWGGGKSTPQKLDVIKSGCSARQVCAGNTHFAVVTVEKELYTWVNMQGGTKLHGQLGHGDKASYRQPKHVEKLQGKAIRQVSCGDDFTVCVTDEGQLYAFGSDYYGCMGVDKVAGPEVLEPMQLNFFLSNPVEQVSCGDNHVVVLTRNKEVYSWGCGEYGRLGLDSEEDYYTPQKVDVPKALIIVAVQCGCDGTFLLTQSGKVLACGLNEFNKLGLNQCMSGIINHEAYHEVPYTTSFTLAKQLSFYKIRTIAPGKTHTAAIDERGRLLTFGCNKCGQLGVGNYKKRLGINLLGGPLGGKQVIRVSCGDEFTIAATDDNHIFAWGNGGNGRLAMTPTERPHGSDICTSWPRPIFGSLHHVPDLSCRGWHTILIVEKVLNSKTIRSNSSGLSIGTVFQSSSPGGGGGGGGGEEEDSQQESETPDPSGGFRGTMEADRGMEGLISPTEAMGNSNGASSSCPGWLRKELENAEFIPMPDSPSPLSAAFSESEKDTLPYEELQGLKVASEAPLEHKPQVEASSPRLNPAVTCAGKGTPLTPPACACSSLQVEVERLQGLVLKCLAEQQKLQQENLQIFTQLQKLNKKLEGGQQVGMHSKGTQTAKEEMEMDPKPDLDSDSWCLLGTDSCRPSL

[10] = target: T2, panel of more than 300 wild-type and mutant kinases (313 kinase panel) (Homo sapiens, UniProt Q96L34); details: kinase MARK4; compound at 1 μM
T2 sequence (Q96L34 1-752): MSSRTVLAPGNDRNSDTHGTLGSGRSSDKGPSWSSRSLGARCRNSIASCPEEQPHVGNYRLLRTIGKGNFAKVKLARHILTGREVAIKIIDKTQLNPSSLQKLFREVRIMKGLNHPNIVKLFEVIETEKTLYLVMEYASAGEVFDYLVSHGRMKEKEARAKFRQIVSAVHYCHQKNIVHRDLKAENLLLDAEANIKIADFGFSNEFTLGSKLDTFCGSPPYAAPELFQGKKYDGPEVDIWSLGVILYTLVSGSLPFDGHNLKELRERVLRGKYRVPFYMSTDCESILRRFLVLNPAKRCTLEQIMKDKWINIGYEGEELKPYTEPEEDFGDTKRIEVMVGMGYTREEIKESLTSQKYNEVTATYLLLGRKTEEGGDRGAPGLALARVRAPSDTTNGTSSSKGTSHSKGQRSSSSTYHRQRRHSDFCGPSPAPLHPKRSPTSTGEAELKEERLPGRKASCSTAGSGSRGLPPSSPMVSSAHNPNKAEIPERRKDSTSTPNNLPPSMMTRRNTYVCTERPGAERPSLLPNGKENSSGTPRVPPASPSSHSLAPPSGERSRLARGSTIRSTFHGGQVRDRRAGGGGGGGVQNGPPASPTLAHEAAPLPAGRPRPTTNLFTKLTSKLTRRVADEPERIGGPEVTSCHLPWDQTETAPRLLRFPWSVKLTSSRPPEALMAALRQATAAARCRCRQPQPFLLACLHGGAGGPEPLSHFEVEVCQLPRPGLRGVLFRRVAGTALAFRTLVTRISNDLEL

[11] = target: panel of more than 300 wild-type and mutant kinases (313 kinase panel) (Homo sapiens, UniProt Q9UBS0); details: kinase p70S6Kβ; 1 μM
[12] = kinase KIT(T670I), compound at 1 μM

SMILES | %-inhibition of LYNa [1] [%] | %-inhibition of KIT(T670I) ([2]; 1 µM) [%] | %-inhibition of PKCα [3] [%] | %-inhibition of FGFR4 [4] [%] | %-inhibition, BMPR1A [5] [%] | %-inhibition of GSK3β [6] [%] | %-inhibition of EPHA7 [7] [%] | %-inhibition of TRKB ([8]; 1 µM) [%] | %-inhibition of NEK9 [9] [%] | %-inhibition of MARK4 [10] [%] | %-inhibition of p70S6Kβ [11] [%] | %-inhibition of KIT(T670I) [2, 12] [%] | %-inhibition of TRKB ([8]; kinase TRKB, 1 μM) [%]
Cc1cn(-c2cc(NC(=O)c3ccc(C)c(Nc4nccc(-c5cccnc5)n4)c3)cc(C(F)(F)F)c2)cn1 [nilotinib] | 85 | 18 | 6.55 | -7.46 | -22 | 10 | 19 | 56 | -21 | 12 | -3.7 | – | –
CNC(=O)c1cc(Oc2ccc(NC(=O)Nc3ccc(Cl)c(C(F)(F)F)c3)c(F)c2)ccn1 [regorafenib] | 89 | – | -11 | 33 | -4.65 | 11 | 84 | – | 2.52 | -16 | 1.41 | 101 | 74
N#CC[C@H](C1CCCC1)n1cc(-c2ncnc3[nH]ccc23)cn1 [ruxolitinib] | 13 | – | 8 | 6 | 5.7 | 10 | 7.51 | – | 8 | 53 | 11 | -0.512 | 88
CO[C@H]1C[C@@H]2CC[C@@H](C)[C@@](O)(O2)C(=O)C(=O)N2CCCC[C@H]2C(=O)O[C@H]([C@H](C)C[C@@H]2CC[C@@H](OC(=O)C(C)(CO)CO)[C@H](OC)C2)CC(=O)[C@H](C)/C=C(\C)[C@@H](O)[C@@H](OC)C(=O)[C@H](C)C[C@H](C)/C=C/C=C/C=C/1C [temsirolimus] | -4.48 | – | -6 | -4.51 | -9 | -7.62 | -6 | – | -8 | -26 | -7 | -4.27 | 1.08
CC(=O)Nc1cccc(-n2c(=O)n(C3CC3)c(=O)c3c(Nc4ccc(I)cc4F)n(C)c(=O)c(C)c32)c1 [trametinib] | -1.74 | – | -5 | -3 | 2.14 | -15 | -5 | – | -3 | -15 | -1 | -3 | -3.4
CCCS(=O)(=O)Nc1ccc(F)c(C(=O)c2c[nH]c3ncc(-c4ccc(Cl)cc4)cc23)c1F [vemurafenib] | 73 | – | -3.61 | 5 | 9 | 8 | -0.639 | – | -2.2 | 3.78 | 0.235 | 5.29 | 11
